By IC50 is commonly meant the concentration that gives 50% inhibition.

“And” between values parts separate entries of the source, which are not always exact repeats. Identical values can stand only once. A value given as a limit tells only on which side of the number the result lay.

This passage reports IC50 results from patent publication US8648066B2 (Exelixis, Inc., priority 2009, dated 2014).

This assay addresses mTOR/GbL/Raptor (mTORC1) (Homo sapiens, UniProt P42345). Kind of assay: mTOR/GbL/Raptor (mTORC1) ELISA assay. To be noted: phosphorylation of 4E-BP1; 0.2 nM mTORC1, 10 μM ATP; read-out: IC50 in this assay (mTORC1 ELISA). The assay is classed as biochemical. In outline: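 Human mTORC1 (0.2 nM) phosphorylated 50 nM His-tagged 4E-BP1 with 10 µM ATP in HEPES pH 7.2 containing 10 mM MnCl2, 120 min at ambient temperature. Substrate was captured on Ni-chelate plates; phospho-4E-BP1 was detected by primary antibody and HRP secondary with luminescence.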
A general note: An ELISA detects its analyte on a solid surface through an enzyme-linked reagent.
For `Cc1nc2cc(-c3ccc4c(c3)CN(c3nc(CN(C)C)ncc3C(C)C)CCO4)ccc2[nH]1` [Example 612, N,N-dimethyl-1-{4-[7-(2-methyl-1H-benzimidazol-5-yl)-2,3-dihydro-1,4-benzoxazepin-4(5H)-yl]-5-(1-methylethyl)pyrimidin-2-yl}methanamine], the IC50 is 50 to 250 nM. In the case of `COc1ccc2c(N3CCOc4ccc(-c5cnc6nc(C)[nH]c6c5)cc4C3)nc(CN(C)C)nc2c1` [Example 613, N,N-dimethyl-1-{4-[7-(2-methyl-1H-imidazo[4,5-b]pyridin-6-yl)-2,3-dihydro-1,4-benzoxazepin-4(5H)-yl]-7-(methyloxy)quinazolin-2-yl}methanamine] it was 250 to 1000 nM; in that of `Cc1nc2cc(-c3ccc4c(c3)CN(c3nc(CN(C)C)nc(C)c3C(C)C)CCO4)cnc2[nH]1` [Example 614, N,N-dimethyl-1-{4-methyl-5-(1-methylethyl)-6-[7-(2-methyl-3H-imidazo[4,5-b]pyridin-6-yl)-2,3-dihydro-1,4-benzoxazepin-4(5H)-yl]pyrimidin-2-yl}methanamine], 10 to 50 nM; in that of `CN(C)Cc1nc2c(c(N3CCOc4ccc(-c5cnc(Cl)c(NS(C)(=O)=O)c5)cc4C3)n1)CC(C)(C)CC2` [Example 616, N-[2-chloro-5-(4-{2-[(dimethylamino)methyl]-6,6-dimethyl-5,6,7,8-tetrahydroquinazolin-4-yl}-2,3,4,5-tetrahydro-1,4-benzoxazepin-7-yl)puyridin-3-yl]methanesulfonamide], 50 to 250 nM. Turning to `CC(=O)Nc1nc2cc(-c3ccc4c(c3)CN(c3nc(CN(C)C)nc5c3CC(C)(C)CC5)CCO4)cnc2s1` [Example 617, N-[6-(4-{2-[(dimethylamino)methyl]-6,6-dimethyl-5,6,7,8-tetrahydroquinazolin-4-yl}-2,3,4,5-tetrahydro-1,4-benzoxazepin-7-yl)[1,3]thiazolo[5,4-b]pyridin-2-yl]acetamide], the IC50 was 10 to 50 nM and 50 to 250 nM. Regarding `COc1ccc2c(N3CCOc4ccc(-c5cnc6sc(NC(C)=O)nc6c5)cc4C3)nc(CN(C)C)nc2c1` [Example 618, N-[6-(4-{2-[(dimethylamino)methyl]-7-(methyloxy)quinazolin-4-yl}-2,3,4,5-tetrahydro-1,4-benzoxazepin-7-yl)[1,3]thiazolo[5,4-b]pyridin-2-yl]acetamide], the concentration for half-maximal inhibition (IC50) lay in the range of 250 to 1000 nM. To `CN(C)c1ncc(-c2ccc3c(c2)CN(c2ncnc4c2CC(C)(C)CC4)CCO3)cc1NS(C)(=O)=O` [Example 619, N-{2-(dimethylamino)-5-[4-(6,6-dimethyl-5,6,7,8-tetrahydroquinazolin-4-yl)-2,3,4,5-tetrahydro-1,4-benzoxazepin-7-yl]pyridin-3-yl}methanesulfonamide] belongs 10 to 50 nM; to `CC1(C)CCc2ncnc(N3CCOc4ccc(-c5cnc(N)c(NS(C)(=O)=O)c5)cc4C3)c2C1` [Example 620, N-{2-amino-5-[4-(6,6-dimethyl-5,6,7,8-tetrahydroquinazolin-4-yl)-2,3,4,5-tetrahydro-1,4-benzoxazepin-7-yl]pyridin-3-yl}methanesulfonamide], 50 to 250 nM; to `CC1(C)CCc2ncnc(N3CCOc4ccc(-c5ccc(Cl)c(NS(C)(=O)=O)c5)cc4C3)c2C1` [Example 621], 250 to 1000 nM. For the compound `CC1(C)CCc2ncnc(N3CCOc4ccc(-c5cnc(Cl)c(NS(C)(=O)=O)c5)cc4C3)c2C1` [Example 623, N-{2-chloro-5-[4-(6,6-dimethyl-5,6,7,8-tetrahydroquinazolin-4-yl)-2,3,4,5-tetrahydro-1,4-benzoxazepin-7-yl]pyridin-3-yl}methanesulfonamide], the IC50 was 10 to 50 nM. Regarding `CN(c1cc(-c2ccc3c(c2)CN(c2ncnc4c2CC(C)(C)CC4)CCO3)cnc1Cl)S(C)(=O)=O` [Example 624, N-{2-chloro-5-[4-(6,6-dimethyl-5,6,7,8-tetrahydroquinazolin-4-yl)-2,3,4,5-tetrahydro-1,4-benzoxazepin-7-yl]pyridin-3-yl}-N-methylmethanesulfonamide], the IC50 lay within 250 to 1000 nM.

As for `CC1(C)CCc2ncnc(N3CCOc4ccc(-c5cnc(C#N)c(NS(C)(=O)=O)c5)cc4C3)c2C1` [Example 625, N-{2-cyano-5-[4-(6,6-dimethyl-5,6,7,8-tetrahydroquinazolin-4-yl)-2,3,4,5-tetrahydro-1,4-benzoxazepin-7-yl]pyridin-3-yl}methanesulfonamide], the IC50 was 50 to 250 nM. In the case of `CCOc1ncc(-c2ccc3c(c2)CN(c2ncnc4c2CC(C)(C)CC4)CCO3)cc1NS(C)(=O)=O` [Example 626, N-{5-[4-(6,6-dimethyl-5,6,7,8-tetrahydroquinazolin-4-yl)-2,3,4,5-tetrahydro-1,4-benzoxazepin-7-yl]-2-(ethyloxy)pyridin-3-yl}methanesulfonamide] it was 10 to 50 nM. In the case of `CNc1ncc(-c2ccc3c(c2)CN(c2ncnc4c2CC(C)(C)CC4)CCO3)cc1NS(C)(=O)=O` [Example 627, N-{5-[4-(6,6-dimethyl-5,6,7,8-tetrahydroquinazolin-4-yl)-2,3,4,5-tetrahydro-1,4-benzoxazepin-7-yl]-2-(methylamino)pyridin-3-yl}methanesulfonamide] it was 50 to 250 nM; in that of `COc1ncc(-c2ccc3c(c2)CN(c2ncnc4c2CC(C)(C)CC4)CCO3)cc1NS(C)(=O)=O` [Example 628, N-{5-[4-(6,6-dimethyl-5,6,7,8-tetrahydroquinazolin-4-yl)-2,3,4,5-tetrahydro-1,4-benzoxazepin-7-yl]-2-(methyloxy)pyridin-3-yl}methanesulfonamide], 10 to 50 nM. In the case of `CC1(C)CCc2ncnc(N3CCOc4ccc(-c5cnc(Nc6ccccc6)c(NS(C)(=O)=O)c5)cc4C3)c2C1` [Example 629, N-{5-[4-(6,6-dimethyl-5,6,7,8-tetrahydroquinazolin-4-yl)-2,3,4,5-tetrahydro-1,4-benzoxazepin-7-yl]-2-(phenylamino)pyridin-3-yl}methanesulfonamide] it was 250 to 1000 nM; in that of `CC1(C)CCc2ncnc(N3CCOc4ccc(-c5cnc(OCc6ccccc6)c(NS(C)(=O)=O)c5)cc4C3)c2C1` [Example 631, N-{5-[4-(6,6-dimethyl-5,6,7,8-tetrahydroquinazolin-4-yl)-2,3,4,5-tetrahydro-1,4-benzoxazepin-7-yl]-2-[(phenylmethyl)oxy]pyridin-3-yl}methanesulfonamide], not below 2000 nM; in that of `CC1(C)CCc2ncnc(N3CCOc4ccc(-c5cnc(F)c(NS(C)(=O)=O)c5)cc4C3)c2C1` [Example 632, N-{5-[4-(6,6-dimethyl-5,6,7,8-tetrahydroquinazolin-4-yl)-2,3,4,5-tetrahydro-1,4-benzoxazepin-7-yl]-2-fluoropyridin-3-yl}methanesulfonamide], 250 to 1000 nM. In the case of `Cc1ncc(-c2ccc3c(c2)CN(c2ncnc4c2CC(C)(C)CC4)CCO3)cc1NS(C)(=O)=O` [Example 633, N-{5-[4-(6,6-dimethyl-5,6,7,8-tetrahydroquinazolin-4-yl)-2,3,4,5-tetrahydro-1,4-benzoxazepin-7-yl]-2-methylpyridin-3-yl}methanesulfonamide], the IC50 is 50 to 250 nM. To `CC1(C)CCc2ncnc(N3CCOc4ccc(-c5cncc(NS(C)(=O)=O)c5)cc4C3)c2C1` [Example 634, N-{5-[4-(6,6-dimethyl-5,6,7,8-tetrahydroquinazolin-4-yl)-2,3,4,5-tetrahydro-1,4-benzoxazepin-7-yl]pyridin-3-yl}methanesulfonamide] belongs 250 to 1000 nM; to `CNCCN(C)c1ncnc(N2CCOc3ccc(-c4cnc5nc(C6CC6)[nH]c5c4)cc3C2)c1C` [Example 635, N-{6-[7-(2-cyclopropyl-1H-imidazo[4,5-b]pyridin-6-yl)-2,3-dihydro-1,4-benzoxazepin-4(5H)-yl]-5-methylpyrimidin-4-yl}-N,N′-dimethylethane-1,2-diamine], 250 to 1000 nM. Consider `CC1(C)CCc2ncnc(N3CCOc4ccc(-c5cnc(N)c(S(=O)(=O)NCC(N)=O)c5)cc4C3)c2C1` [Example 636, N~2~-({2-amino-5-[4-(6,6-dimethyl-5,6,7,8-tetrahydroquinazolin-4-yl)-2,3,4,5-tetrahydro-1,4-benzoxazepin-7-yl]pyridin-3-yl}sulfonyl)glycinamide], for which the IC50 was in the range of 10 to 50 nM.

With `CCNc1nc(C)nc(N2CCOc3ccc(-c4cnc5nc(C)[nH]c5c4)cc3C2)c1C` [Example 637, N-ethyl-2,5-dimethyl-6-[7-(2-methyl-1H-imidazo[4,5-b]pyridin-6-yl)-2,3-dihydro-1,4-benzoxazepin-4(5H)-yl]pyrimidin-4-amine], the IC50 was 250 to 1000 nM. To `CCNc1ncnc(N2CCOc3ccc(-c4cnc5nc(C)[nH]c5c4)cc3C2)c1C` [Example 639, N-ethyl-5-methyl-6-[7-(2-methyl-1H-imidazo[4,5-b]pyridin-6-yl)-2,3-dihydro-1,4-benzoxazepin-4(5H)-yl]pyrimidin-4-amine] belongs 250 to 1000 nM; to `CCNc1nc2ccc(-c3ccc4c(c3)CN(c3ncnc(Nc5ccc(OC)cc5)c3C)CCO4)cc2[nH]1` [Example 640, N-ethyl-6-[4-(5-methyl-6-{[4-(methyloxy)phenyl]amino}pyrimidin-4-yl)-2,3,4,5-tetrahydro-1,4-benzoxazepin-7-yl]-1H-benzimidazol-2-amine], 250 to 1000 nM; to `CCNc1nc2ncc(-c3ccc4c(c3)CN(c3nc(C)nc5cc(OC)ccc35)CCO4)cc2[nH]1` [Example 642, N-ethyl-6-{4-[2-methyl-7-(methyloxy)quinazolin-4-yl]-2,3,4,5-tetrahydro-1,4-benzoxazepin-7-yl}-1H-imidazo[4,5-b]pyridin-2-amine], 10 to 50 nM. On to `CCNc1nc2ccc(-c3ccc4c(c3)CN(c3ncnc(NCC)c3C)CCO4)cc2[nH]1` [Example 643, N-ethyl-6-{4-[6-(ethylamino)-5-methylpyrimidin-4-yl]-2,3,4,5-tetrahydro-1,4-benzoxazepin-7-yl}-1H-benzimidazol-2-amine], for which the IC50 lay within 250 to 1000 nM.
